Each structure is given as a SMILES string. “Also recorded” adds a separate entry of the source.

Data set [1] relates to NF-κB p65 nuclear translocation. As to the kind of experiment: NF-κB p65 immunofluorescence staining, LPS-stimulated RAW264.7. The format is cell-based. The conditions noted are these: RAW264.7, 25 µg/ml pre-treatment 4 h, LPS 1 h. As to the method: NF-κB Activation Kits (Thermo Scientific) were used as previously described. Cells were pretreated with compounds for 4 h before being stimulated with lipopolysaccharide (LPS) ortumour necrosis factor α (TNFα) for 1 h. Cells were then fixed and permeabilized before probing with NF-κB p65 antibody for 1 h. Staining solution (containing DyLight 488 Goat Anti-Rabbit and Hoechst dye) was then added and incubated for 1 h. The plate with stained cells was evaluated using a Cellomics ArrayScan HCS Reader (Cellomics, PA, USA). Data were captured, extracted and analyzed with ArrayScan II Data Acquisition and Data Viewer version 3.0 (Cellomics).
NF-κB acts as a central mediator of inflammatory responses and compounds that inhibit NF-κB activation are potential anti-inflammatory agents. To evaluate this, we performed immunofluorescence staining of NF-κB p65. […] In response to LPS stimulation, NF-κB p65 translocated from cytoplasm into the nucleus, implying NF-κB activation (Figure 3). […] Moreover, we observed that complex 6–8 required higher concentration (>50 µg/ml) to elicit similar inhibitory effect (data not shown).
Figure 3 Effect of N4-substituteted thiosemicarbazone complexes on LPS-induced NF-κB nuclear transloction in RAW264.7 macrophage cells. Staining of Hoechst (nucleus) and NF-κB in RAW264.7 cells. […]

Another data set concerns RAW264.7 cells. Briefly: Cell proliferation (MTT) assay, RAW264.7. To be noted: RAW264.7 cells, 48 h treatment.
The nature of data set [2]: Acute toxicity test in mice. It counts as in vivo, C57BL/6 mice. An excerpt: Next, we examined the anti-inflammatory effects of complex 5 in a carrageenan-induced paw edema mouse model. We first tested the acute toxicity effect of complex 5 in C57BL/6 mice.
The test system of data set [3] is IκBα degradation and p65 nuclear translocation. As to the kind of experiment: Immunoblot of cytoplasmic/nuclear extracts, LPS-stimulated RAW264.7. The format is cell-based. The conditions noted are these: RAW264.7, pretreated 4 h, LPS stimulation. How it is done:
Cells were pretreated with or without of complex 5 (25 µg/ml or 50 µg/ml) for 4 h before treatment with LPS (10 ng/ml) or TNFα (10 ng/ml), for the indicated times. The cytoplasmic extracts were prepared by using the hypotonic lysis buffer (10 mM Tris, pH 7.5; 1.5 mM MgCl2; 10 mM KCl; 0.5 mM DTT; 0.5 mM PMSF; 1× Protease Inhibitor, 0.1% NP40) followed by incubation on ice for 20 min and centrifugation at 3k rpm at 4°C for 10 min. The supernatants were collected as cytoplasmic extracts. The nuclear pellets were resuspended in the whole cell lysis buffer (25 mM Tris, pH7.5; 420 mM NaCl; 1.5 mM MgCl2; 0.2 mM EDTA; 25% Glycerol; 0.5 mM DTT; 0.5 mM PMSF; 1× Protease Inhibitor). The nuclear extracts were then collected by centrifugation at 15 krpm at 4°C for 10 min. Immunoblotting was performed using antibodies against PARP (F-2, N-20), HSP90a (C-20), p65 (C-20), IκBα (C-21) and p-IκBα from Santa Cruz Biotech.
Next, complex 5 was chosen for subsequent mechanistic study due to its potent inhibitory effect on NF-κB p65 nuclear translocation. […] Cytoplasmic and nuclear extracts were separated and analyzed with immunoblotting using anti-IκBα and anti-p65 antibodies (Figure 4A and 4B). […]
Figure 4 Complex 5 blocks LPS-induced NF-κB nuclear translocation by inhibiting IκBα degradation. […] Western blot signal intensities were quantified using ImageJ software. […]

Data set [4] deals with NF-κB transactivation activity. Briefly: NF-κB luciferase reporter assay in 293T-luc cells. The format is cell-based. To be noted: 293T-luc, 12.5, 25, 50 µg/ml 4 h, TNFα 12 h. How it is done:
293T cells were transduced with a lentivirus carrying luciferase reporter driven by NF-κB enhancer found in immunoglobulin kappa light chain gene to prepare 293T-luc cells. The 293T-luc cells were pretreated with or without of complex 5 (12.5 µg/ml, 25 µg/ml, 50 µg/ml) for 4 h. The cells were later stimulated with TNFα (10 ng/ml) for 12 h. Cells were scraped, collected into 1.5 ml tubes and centrifuged at 1.5 k rpm 4°C for 5 min before removing the culture medium. Cell pellets were resuspended in 50 µl luciferase lysis buffer (100 mM Sodium Phosphate buffer, pH7.8; 8 mM MgCl2; 1% Triton X-100; 15% glycerol; 1 mM DTT). A total volume of 50 µl of luciferase substrate (containing 1 mM ATP; 0.25 mM luciferin; 1% BSA) was added to each well on a white 96-well plate containing 20 µg lysate. Luciferase activity was measured in 96-well plate with a VarioskanFlash microplate reader (Thermo Scientific).
Figure 6 Complex 5 inhibits NF-κB transactivation activity. (A) RAW264.7 cells pretreated with or without complex 5 for 4 h were treated with LPS for 4 h. The expression of TNFα, IFNβ, IL6 and IP10 were measured by QPCR. […] The expression of TNFα, IL8, CCL5, ICAM1, IL6 and A20 were measured by QPCR. […] The expression of IL8 and TNF were measured by QPCR. […] Cell lysates were prepared and the luciferase activities were measured. […]
On the technique in general: In a reporter assay the amount or activity of a reporter protein is the signal.

Experimental for RAW264.7 cells: A total number of 1.0×10^4 cells per well were seeded into a 96-well plate and incubated overnight at 37°C in 5% CO2. The next day, the cells were treated with a two-fold serial dilution of compounds. MTT assays were performed as described [27]. After 48 h, (4,5-dimethylthiazol-2-yl-2,5-diphenyltetrazoliumbromide) was added at 2 mg/ml. After 3 h of incubation at 37°C in 5% CO2, DMSO was added to dissolve the formazan crystals. The plates were then read in Chameleon multitechnology microplate reader (Hidex, Turku, Finland) at 570 nm absorbance. The ratio of the absorbance of treated cells to the absorbance of DMSO-treated control cells was determined as percentage cell viability.
To examine whether synthesized Ni(II) thiosemicarbazone ligands or Ni(II)-phosphine complexes were cytotoxic, we treated RAW264.7 (leukemic monocyte macrophage) and HeLa S3 (cervical adenocarcinoma) cells with these compounds for 48 h. The cell viability was determined with MTT assays [33].

As for `NC1=[S+][Ni-2]2([P+](c3ccccc3)(c3ccccc3)c3ccccc3)[O]c3c(O)cccc3C=[N+]2N1.[Cl-]` [complex 5, {2-[(2-Carbamothiolylhydrazin-1-ylidene-[kappa]2N1,S)methyl]-6-hydroxyphenolato-[kappa]O1}(triphenylphosphine-[kappa]P)nickel(II) chloride], the “Inhibition of LPS-mediated NF-κB p65 nuclear translocation” value in data set [1] is on record as “efficiently inhibited; also recorded: marked inhibition”. Further, the “IC50 (cell viability, MTT)” value in the data set on RAW264.7 cells was found to be 28.63 ± 2.24 µg/mL. The “Safety judged from renal and liver functional tests” value was “safe for consumption” in data set [2] (125 mg/kg or 250 mg/kg oral) and “may be cytotoxic to the host” in data set [2] (500 mg/kg oral). Moreover, in data set [2] (14 day observation period), the Acute toxicity observation entry is reported as “no overt abnormalities”. Further, the Well tolerated dose result in data set [2] (acute toxicity test) was “up to 250 mg/kg”. The “IκBα degradation and p65 nuclear translocation (immunoblot)” value in data set [3] is “inhibited both IκBα degradation and p65 nuclear translocation”. In addition, the “TNFα-induced NF-κB luciferase activity” value in data set [4] is reported as “significantly reduced the luciferase activity in a dose-dependent manner”.

Values taken from paper PMC4076215, “Nickel(II) Complex of Polyhydroxybenzaldehyde N4-Thiosemicarbazone Exhibits Anti-Inflammatory Activity by Inhibiting NF-κB Transactivation” (PLoS ONE, 2014).
